Assay results from PubChem BioAssay (NCI).
Several values for one entry are separate records, joined by “and”; a condition that tells them apart may be missing. Identical values can stand only once.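 48-hour exposure; five concentrations; linearly interpolated endpoints. GI50 marks 50% less growth. TGI: total growth inhibition.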

Legend:
Assay in all cases: NCI anticancer screen, dose series, 48 h
[1] = test system: MOLT-4 leukemia
[2] = test system: TK-10 renal
[3] = test system: COLO 205 colon
[4] = test system: A498 renal
[5] = test system: MDA-N
[6] = test system: SK-MEL-2 melanoma
[7] = test system: A549 NSCLC
[8] = test system: EKVX NSCLC
[9] = test system: MALME-3M melanoma
[10] = test system: RXF 393 renal

SMILES | TGI [1] | TGI [2] | TGI [3] | TGI [4] | TGI [5] | TGI [6] | TGI [7] | TGI [8] | TGI [9] | TGI [10] | GI50 [4] | GI50 [5] [µM] | GI50 [6] [µM] | GI50 [8] | GI50 [10] | GI50 [2] [µM] | GI50 [3] [µM] | GI50 [9] [µM]
O=c1cc(CNC2CCCC2)[nH]c(=O)[nH]1 | > 100 µM | > 100 µM | > 100 µM | > 100 µM | > 100 µM | > 100 µM | > 100 µM | > 100 µM | > 100 µM | > 100 µM |  |  |  |  |  |  |  | 
O=c1[nH]c(=O)n(C2CC(O)C(CO)O2)cc1I (centres undefined) | > 100 µM | > 100 µM | > 100 µM | > 100 µM | > 100 µM | > 100 µM | > 100 µM | > 100 µM | > 100 µM | > 100 µM |  |  |  |  |  |  |  | 
O=C1C2CCCCC2C(=O)N1n1c(Cc2ccc(Cl)cc2)n[nH]c1=O (centres undefined) | > 100 µM | > 100 µM | > 100 µM | > 100 µM | > 100 µM | > 100 µM | > 100 µM | > 100 µM | > 100 µM | > 100 µM |  |  |  |  |  |  |  | 
COc1c2cc([N+](=O)[O-])cc1CNC(=O)CN1CCOCCOCCN(CCOCCOCC1)CC(=O)NC2 | > 100 µM | > 100 µM | > 100 µM | > 100 µM | > 100 µM | > 100 µM | > 100 µM | > 100 µM | > 100 µM | > 100 µM |  |  |  |  |  |  |  | 
O=C(Cc1ccccc1)NCCc1ccc(O)c(O)c1 | > 100 µM | > 100 µM | > 100 µM | > 100 µM | 34.9 µM | 80.1 µM | > 100 µM | > 100 µM | > 100 µM | > 100 µM |  |  |  |  |  |  |  | 
Nc1nc(Cl)cc(NCC2(O)CC(CO)C2)n1 (centres undefined) | > 100 µM | > 100 µM | > 100 µM | > 100 µM | > 100 µM | > 100 µM | > 100 µM | > 100 µM | > 100 µM | > 100 µM |  |  |  |  |  |  |  | 
CN(C)c1nc2sc3c(c2c(=O)o1)CCCC3 | > 100 µM | > 100 µM | 53.1 µM | 66.8 µM | > 100 µM | 99.4 µM | > 100 µM | > 100 µM | > 100 µM | > 100 µM |  |  |  |  |  |  |  | 
Cc1ccc(C)n1-c1ccccc1C1SCCCS1 | > 100 µM | > 100 µM | > 100 µM | > 100 µM | > 100 µM | > 100 µM | > 100 µM | > 100 µM | > 100 µM | > 100 µM |  |  |  |  |  |  |  | 
COC(=O)c1c2c(cc3c1CC1(Cc4ccccc4C1=O)C3)CCC2 (centres undefined) | 47.4 µM | > 100 µM | 23.4 µM | > 100 µM | 34.2 µM | > 100 µM | > 100 µM | > 100 µM | 79.9 µM | 98.4 µM |  |  |  |  |  |  |  | 
CC1=NN(C(=O)CSc2nnc(SCC(=O)N3N=C(C)CC3(O)c3ccccc3)s2)C(O)(c2ccccc2)C1 (centres undefined) | > 100 µM | > 100 µM | > 100 µM | > 100 µM | > 100 µM | > 100 µM | > 100 µM | > 100 µM | > 100 µM | 75.1 µM |  |  |  |  |  |  |  | 
O=C1NC(N/N=C\C(O)C(O)C(O)CO)=N/C1=C/c1ccccc1 (centres undefined) | > 100 µM and 54.3 µM | > 100 µM | > 100 µM | > 100 µM | > 100 µM | > 100 µM | > 100 µM | > 100 µM | > 100 µM | > 100 µM | > 100 µM and 39.3 µM |  |  |  |  |  |  | 
C1=C\SS/C=C\SS/C=C\SS/C=C\SS/1 | > 100 µM | > 100 µM | > 100 µM | > 100 µM | > 100 µM | > 100 µM | > 100 µM | > 100 µM | > 100 µM | > 100 µM |  |  |  |  |  |  |  | 
CCOC(=O)c1cccc(NC(=O)CCl)c1 | 27.2 µM | 15 µM | 23.5 µM | 29.2 µM | 14.7 µM | 8.57 µM | 29.8 µM | 8.9 µM | 18.5 µM | 9.9 µM |  |  |  |  |  |  |  | 
O=C1N[C@H]2c3c(Cl)sc(Cl)c3/C(=N/O)[C@H]2O1 | > 100 µM | > 100 µM | > 100 µM | > 100 µM | > 100 µM | > 100 µM | > 100 µM | > 100 µM | > 100 µM | > 100 µM |  |  |  |  |  |  |  | 
CC[n+]1cnc(N)c2c(-c3ccc(Cl)cc3)cn(-c3ccc(C)cc3)c21 | 20.5 µM | 31.6 µM | 17.1 µM | 24 µM | 25 µM | 36 µM | 25.7 µM | 30.8 µM | 25.5 µM | 18.2 µM |  |  |  |  |  |  |  | 
c1ccc(CNC2CC(NCc3ccccn3)CC(NCc3ccccn3)C2)nc1 (centres undefined) | 23.4 µM and 24.8 µM and 33.1 µM | 17.8 µM and 10.8 µM | 4.02 µM and 4.61 µM and 3.21 µM | 3.31 µM and 6.25 µM and 3.51 µM | 12.5 µM and 11.3 µM and 4.78 µM | 6.86 µM and 11.5 µM and 12.2 µM | 6.47 µM and 6.12 µM | 14.7 µM and 25 µM and 16.6 µM | 10.4 µM and 8.6 µM and 15.8 µM | 4.11 µM and 9.03 µM and 3.83 µM | 2.06 µM | 2.22 | 3.4 | 3.87 µM and 7.93 µM and 3.88 µM | 1.98 µM and 4.41 µM |  |  | 
CN1C/C(=C\c2cccs2)C2=NC(=S)NC(c3cccs3)C2C1 (centres undefined) | 92 µM | > 100 µM | > 100 µM | > 100 µM | > 100 µM | > 100 µM | > 100 µM | > 100 µM | > 100 µM | > 100 µM |  |  |  |  |  |  |  | 
O=C(O)c1ccccc1.[Ag] | > 21.7 µM | 19.6 µM | 4.12 µM | 36.8 µM | 19.2 µM | 30.2 µM | > 58.7 µM | 55.4 µM | 3.25 µM | 35.9 µM |  |  |  |  |  |  |  | 
COC(=O)[C@H](Cc1ccccc1)NC(=O)c1ccc(CNC(=O)/C=C/c2ccc(-c3ccccc3)cc2)cc1 | > 100 µM | > 100 µM | > 100 µM | > 100 µM | > 100 µM | > 100 µM | > 100 µM | > 100 µM | > 100 µM | 40.3 µM |  |  |  |  |  |  |  | 
CCC(C)[C@H](NC(=O)[C@H](Cc1ccccc1)NC(=O)N(CC)c1ccccc1)C(=O)N[C@@H](CC(C)C)C(=O)OC (some centres undefined) | 39.7 µM | > 100 µM | > 100 µM | > 100 µM | > 100 µM | > 100 µM | > 100 µM | > 100 µM | > 100 µM | > 100 µM |  |  |  |  |  |  |  | 
CCCC(=O)O | > 18700 µM | > 18700 µM | 9160 µM | 10400 µM | > 18700 µM | > 18700 µM | > 18700 µM | > 18700 µM | > 18700 µM | 16100 µM |  |  |  |  |  | 2120 | 2550 | 3490
COC(=O)N1CC2(CO)C3CC=C(C(=O)Nc4ccccc4Br)C2C1C3Br (centres undefined) | > 50 µM | > 50 µM | > 50 µM | > 50 µM | > 50 µM | > 50 µM | > 50 µM | > 50 µM | > 50 µM | > 50 µM |  |  |  |  |  |  |  | 
